According to patent publication US11976074B1, “Crystalline salts of Linsitinib” (Sling Therapeutics, Inc., priority 2023, dated 2024):
Values belong to the compound of their own block, whether it stands above or below them.

Tests used:
Format in all cases: physicochemical
[1] = Polymorph screen of linsitinib malate (PXRD/XRPD result); conditions: solvent and conditions per sample no.; for PXRD Results: polymorph screen of linsitinib malate, slurry, cooling, precipitation or lyophilization
Description: A Rigaku SmartLab X-Ray Diffractometer was configured in Bragg-Brentano reflection geometry equipped with a beam stop and knife edge to reduce incident beam and air scatter.
A polymorph screen of linsitinib malate was conducted. Experiments were designed to target thermodynamically stable forms and therefore utilized techniques such as long-term slurry, cooling, anti-solvent addition, and evaporation. Reaction crystallization experiments with linsitinib free base and L-malic acid were also conducted. Additionally, non-crystalline material was used as an alternative starting material as this can provide access to polymorphs that would not be accessible from crystalline starting material.

[2] = Physical stability on capped storage at room temperature (PXRD reanalysis)
Description: A theoretical hemi-hydrate for a mono-edisylate salt of linsitinib would contain 1.4% water. Additional endotherms are observed at 252 and 278° C. that are likely due to melt/decomposition based on the corresponding weight loss in the TGA beginning around 244° C.
HCl 1 was generated via evaporation of a solution containing 1:1 linsitinib:acid in tetrahydrofuran (THF)/water at 70° C. […] The weight loss is likely due to water and potentially evolution of hydrochloric acid.
The sample was initially analyzed by PXRD and stored at ambient temperature in a capped vial. (FIG. 85).

[3] = Thermogravimetric analysis (TGA)
Description: The TG analysis was carried out using a TA Instruments […] Discovery Series instrument. The instrument balance was calibrated using class M weights and the temperature calibration was performed using alumel. The nitrogen purge was 10 mL per minute at the balance and 25 mL per minute at the furnace. The sample was placed into a pre-tared platinum pan and heated from approximately 25° C. to 300° C. at a rate of 10° C. per minute.

[4] = Interconversion slurries of esylate forms; conditions: 4° C., RT, 60° C.; MEK and 2:1 EtOH:HEP
Description: To find the thermodynamically stable form of the mono-salt, interconversion slurries were set-up at three different temperatures in two different solvent systems between Esylates 1, 2, 3 and Esylate 4+Esylate 5 (Table 11). A sample of Esylate 4+Esylate 5 was included as part of the interconversion slurry in-spite of Esylate 4 being a solvate as Esylate 5 could not be isolated as a separate pure phase until the drying experiment was carried out on Esylate 4 towards the end of the study. Slurries were set-up at 4° C., RT and at 60° C. in MEK and 2:1 EtOH:HEP, resulting in a total of six experiments which were run for a total of 7 days.

[5] = Equilibrium solubility in bio-relevant media (FaSSGF pH 1.6, FaSSIF pH 6.5); conditions: for Solubility compared with the free base: in words
Text: In addition to the pH-solubility data, a comparison of the equilibrium solubility of linsitinib free base and salts in two bio-relevant media (Table 28), fasted state simulated gastric fluid (FaSSGF pH 1.6) and intestinal fluid (FaSSIF pH 6.5) was completed. […] A saturated solution of Esylate 1 was not achieved during this study and therefore the equilibrium solubility could be higher than determined. It should be noted that variability of almost a full pH unit was noted among the samples making a direct comparison more challenging.

[6] = pH-solubility of linsitinib free base and selected salts (pH 1.5 to 6.5, overnight equilibration, HPLC); conditions: for solubility: overnight equilibration; for Final pH: after overnight equilibration
Description: The pH-solubility of selected salts (Phosphate 1, L-Malate 1, Esylate 1, and Esylate 2) was evaluated and compared with linsitinib free base. The solubility analysis was conducted in a manner consistent with a previous study that was performed with linsitinib free base. Aqueous solutions were prepared between pH 1.5 and pH 6.5 in 0.5 pH unit increments via titration of the solution using NaOH and HCl. For each salt or the free base, an attempt was made to reach saturation in each of the solutions by adding sufficient material to the solution such that excess solids remained. If saturation was achieved, the pH of the solution was measured and adjusted to the target pH and additional material was added if needed. The samples were then equilibrated overnight. The final pH of the solution was measured, the solids were filtered and selected samples were analyzed by PXRD. The concentration of linsitinib in the filtrate was quantitated by HPLC (diluted as needed). In some cases, significant drift (+1 pH unit or more) of the final pH from the target pH was observed after the overnight equilibration.
The pH-solubility data is shown graphically in FIG. 89. […] Indeed, it should be noted that in the majority of the low pH systems, higher initial dissolution/solubility was observed followed by precipitation of the material from solution upon longer equilibration.

[7] = Water activity slurries of Esylate 2 seeded with Esylate 1; conditions: THF/H2O, aw 0.45-0.91, RT
Text: Water activity slurries were set-up with Esylate 2 and seeds of Esylate 1 to explore the presence of a potential hydrate and any associated critical water activity (Table 12). Four slurries were set-up in varying ratios of THF and H2O corresponding to 0.45, 0.63, 0.78 and 0.91 aw respectively.

[8] = fasted state simulated gastric fluid (FaSSGF), pH 1.6, fassgf or other biorelevant, thermodynamic from solid, FaSSGF (pH 1.6), read-out: Solubility
[9] = aqueous solution, pH 4, aqueous buffer, thermodynamic from solid, target pH 4.0, * = clear solution, not equilibrium value, read-out: Solubility
[10] = aqueous solution, pH 4.5, aqueous buffer, thermodynamic from solid, target pH 4.5, * = clear solution, not equilibrium value, read-out: Solubility
[11] = aqueous solution, pH 5, aqueous buffer, thermodynamic from solid, target pH 5.0, read-out: Solubility
[12] = aqueous solution, pH 5.5, aqueous buffer, thermodynamic from solid, target pH 5.5, read-out: Solubility
[13] = aqueous solution, pH adjusted with NaOH and HCl, pH 1.5, aqueous buffer, thermodynamic from solid, target pH 1.5, * = clear solution, not equilibrium value, read-out: Solubility
[14] = aqueous solution, pH adjusted with NaOH and HCl, pH 2, aqueous buffer, thermodynamic from solid, target pH 2.0, * = clear solution, not equilibrium value, read-out: Solubility
[15] = aqueous solution, pH adjusted with NaOH and HCl, pH 2.5, aqueous buffer, thermodynamic from solid, target pH 2.5, * = clear solution, not equilibrium value, read-out: Solubility
[16] = aqueous solution, pH adjusted with NaOH and HCl, pH 3, aqueous buffer, thermodynamic from solid, target pH 3.0, * = clear solution, not equilibrium value, read-out: Solubility
[17] = aqueous solution, pH adjusted with NaOH and HCl, pH 3.5, aqueous buffer, thermodynamic from solid, target pH 3.5, * = clear solution, not equilibrium value, read-out: Solubility

SMILES: C[C@]1(O)C[C@@H](c2nc(-c3ccc4ccc(-c5ccccc5)nc4c3)c3c(N)nccn32)C1 [Edisylate 1]
- PXRD result after storage at RT ([2]; 20 days, capped): no significant changes
- PXRD result after storage at RT ([2]; 20 days, capped, listed as 2-4): Edisylate 1

SMILES: C[C@]1(O)C[C@@H](c2nc(-c3ccc4ccc(-c5ccccc5)nc4c3)c3c(N)nccn32)C1 [Form J]
- PXRD result after storage at RT ([2]; 17 days, capped): Form I
- PXRD result after storage at RT ([2]; 20 days, capped): converted to Form I

SMILES: C[C@]1(O)C[C@@H](c2nc(-c3ccc4ccc(-c5ccccc5)nc4c3)c3c(N)nccn32)C1 [Form I]
- PXRD result after storage at RT ([2]; 20 days, capped, listed as 2-13): Form I

SMILES: CCS(=O)(=O)O.C[C@]1(O)C[C@@H](c2nc(-c3ccc4ccc(-c5ccccc5)nc4c3)c3c(N)nccn32)C1 [Esylate 5]
- Relative stability of the form in interconversion slurries [4]: metastable

SMILES: C[C@]1(O)C[C@@H](c2nc(-c3ccc4ccc(-c5ccccc5)nc4c3)c3c(N)nccn32)C1 [Form B, reference compound]
- PXRD result after storage at RT ([2]; 23 days): Form B (LC)

SMILES: CCS(=O)(=O)O.C[C@]1(O)C[C@@H](c2nc(-c3ccc4ccc(-c5ccccc5)nc4c3)c3c(N)nccn32)C1 [Esylate 1]
- Final pH ([5]; FaSSGF (pH 1.6)): 3.30
- Solubility compared with the free base ([5]; FaSSGF (pH 1.6)): highest solubility by a significant margin
- Final pH ([5]; FaSSIF (pH 6.5)): 6.20
- solubility ([5]; FaSSIF (pH 6.5)): 0.006 mg/mL
- Solubility compared with the free base ([5]; FaSSIF (pH 6.5)): lower solubility
- solubility [5, 8]: ≥ 61.6 mg/mL
- Relative stability of the form in water activity slurries [7]: metastable
- solubility [6, 9]: 32.3 mg/mL
- solubility [6, 10]: 36.6 mg/mL
- solubility [6, 11]: 28.7 mg/mL
- solubility [6, 12]: 0.0517 mg/mL
- solubility [6, 13]: 64.3 mg/mL
- solubility [6, 14]: 59.1 mg/mL
- solubility [6, 15]: 47.3 mg/mL
- solubility [6, 16]: 53 mg/mL
- solubility [6, 17]: 31 mg/mL
- Solubility compared to the free base and other salts ([6]; between pH 3 and pH 4): highest solubility
- Solubility compared with the free base or Phosphate 1 ([6]; lower pH (<3)): significantly higher solubility
- Final pH ([6]; target pH 1.5): 1.52
- Final pH ([6]; target pH 2.0): 1.99
- Final pH ([6]; target pH 2.5): 2.50
- Final pH ([6]; target pH 3.0): 3.04
- Final pH ([6]; target pH 3.5): 3.50
- Final pH ([6]; target pH 4.0): 3.94
- Final pH ([6]; target pH 4.5): 4.36
- Final pH ([6]; target pH 5.0): 3.86
- Final pH ([6]; target pH 5.5): 4.47
- Final pH ([6]; target pH 6.0): 9.08
- Final pH ([6]; target pH 6.5): 4.46
- solubility ([6]; target pH 6.5): 0.0296 mg/mL

Further lines, results first:

- XRPD Results ([1]; polymorph screen starting from non-crystalline linsitinib L-malate, vapor stress, humidity stress, slurry or precipitation, listed as 4-66): Malate 9
SMILES: C[C@]1(O)C[C@@H](c2nc(-c3ccc4ccc(-c5ccccc5)nc4c3)c3c(N)nccn32)C1.O=C(O)C[C@H](O)C(=O)O [L-Malate 9]

- TGA Results (weight loss) ([3]; 90° C. to 139° C.): 0.6%, 90 °C to 139 °C
- TGA Results (weight loss) ([3]; start to 90° C.): 3.0%, start to 90 °C
- PXRD Results ([1]; listed as 4-22): Malate 3; LC
SMILES: C[C@]1(O)C[C@@H](c2nc(-c3ccc4ccc(-c5ccccc5)nc4c3)c3c(N)nccn32)C1.O=C(O)C[C@H](O)C(=O)O [L-Malate 3]

- TGA Results (weight loss) ([3]; start to 61° C.): 4.2%, start to 61 °C
SMILES: C[C@]1(O)C[C@@H](c2nc(-c3ccc4ccc(-c5ccccc5)nc4c3)c3c(N)nccn32)C1.O=C(O)C[C@H](O)C(=O)O [L-Malate 6]

- PXRD Results ([1]; listed as 4-45): Malate 2
SMILES: C[C@]1(O)C[C@@H](c2nc(-c3ccc4ccc(-c5ccccc5)nc4c3)c3c(N)nccn32)C1.O=C(O)C[C@H](O)C(=O)O [L-Malate 2]

- Final pH ([5]; FaSSGF (pH 1.6)): 2.74
- Solubility compared with the free base ([5]; FaSSGF (pH 1.6)): largely comparable
- Final pH ([5]; FaSSIF (pH 6.5)): 5.63
- solubility [5, 8]: 9.51 mg/mL
- solubility ([5]; fasted state simulated intestinal fluid (FaSSIF), pH 6.5, fassif, thermodynamic from solid, FaSSIF (pH 6.5), read-out: Solubility): 0.009 mg/mL
- solubility [6, 9]: 5.87 mg/mL
- solubility [6, 10]: 3.04 mg/mL
- solubility [6, 11]: 0.0458 mg/mL
- solubility [6, 12]: 0.035 mg/mL
- solubility ([6]; aqueous solution, pH 6, aqueous buffer, thermodynamic from solid, target pH 6.0, read-out: Solubility): 0.0046 mg/mL
- solubility ([6]; aqueous solution, pH 6.5, aqueous buffer, thermodynamic from solid, target pH 6.5, read-out: Solubility): 0.001 mg/mL
- solubility [6, 13]: 38.6 mg/mL
- solubility [6, 14]: 25.9 mg/mL
- solubility [6, 15]: 18.4 mg/mL
- solubility [6, 16]: 14.9 mg/mL
- solubility [6, 17]: 7.5 mg/mL
- Final pH ([6]; target pH 1.5): 1.39
- Final pH ([6]; target pH 2.0): 1.72
- Final pH ([6]; target pH 2.5): 2.46
- Final pH ([6]; target pH 3.0): 2.58
- Final pH ([6]; target pH 3.5): 2.89
- Final pH ([6]; target pH 4.0): 3.69
- Final pH ([6]; target pH 4.5): 4.01
- Final pH ([6]; target pH 5.0): 5.49
- Final pH ([6]; target pH 5.5): 5.73
- Final pH ([6]; target pH 6.0): 5.65
- Final pH ([6]; target pH 6.5): 6.21
SMILES: C[C@]1(O)C[C@@H](c2nc(-c3ccc4ccc(-c5ccccc5)nc4c3)c3c(N)nccn32)C1.O=P(O)(O)O [Phosphate 1]

- PXRD result after storage at RT ([2]; 17 days, capped): no significant changes
- PXRD result after storage at RT ([2]; 17 days, capped, listed as 2-11): HCl 1
SMILES: C[C@]1(O)C[C@@H](c2nc(-c3ccc4ccc(-c5ccccc5)nc4c3)c3c(N)nccn32)C1.Cl [HCl 1]
